Literature values, collected in article PMC9516332 (Frontiers in Oncology, 2022).
Like-named read-outs stand apart in the source and are kept apart here.

Columns and labels:
Conditions in all cases: cited from earlier work
[1] = biological target: T1, panel of 255 wild-type kinases (Homo sapiens, UniProt Q13188)
T1 sequence (Q13188 1-491): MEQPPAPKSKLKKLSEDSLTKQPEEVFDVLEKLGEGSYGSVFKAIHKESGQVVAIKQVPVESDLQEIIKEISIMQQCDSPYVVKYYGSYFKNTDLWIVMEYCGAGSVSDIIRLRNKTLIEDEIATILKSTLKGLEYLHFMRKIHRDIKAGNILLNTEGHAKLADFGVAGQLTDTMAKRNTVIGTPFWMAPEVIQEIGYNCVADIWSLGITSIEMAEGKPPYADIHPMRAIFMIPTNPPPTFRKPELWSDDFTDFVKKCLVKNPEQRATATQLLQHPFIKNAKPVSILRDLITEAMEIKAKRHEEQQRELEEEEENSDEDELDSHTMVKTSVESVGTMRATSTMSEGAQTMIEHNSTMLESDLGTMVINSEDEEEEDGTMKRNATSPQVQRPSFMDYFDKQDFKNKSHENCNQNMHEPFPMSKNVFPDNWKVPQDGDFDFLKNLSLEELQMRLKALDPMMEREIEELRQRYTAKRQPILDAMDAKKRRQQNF

[2] = biological target: panel of 255 wild-type kinases (Homo sapiens, UniProt Q13177)
[3] = biological target: T2, panel of 255 wild-type kinases (Homo sapiens, UniProt O15111)
T2 sequence (O15111 1-745): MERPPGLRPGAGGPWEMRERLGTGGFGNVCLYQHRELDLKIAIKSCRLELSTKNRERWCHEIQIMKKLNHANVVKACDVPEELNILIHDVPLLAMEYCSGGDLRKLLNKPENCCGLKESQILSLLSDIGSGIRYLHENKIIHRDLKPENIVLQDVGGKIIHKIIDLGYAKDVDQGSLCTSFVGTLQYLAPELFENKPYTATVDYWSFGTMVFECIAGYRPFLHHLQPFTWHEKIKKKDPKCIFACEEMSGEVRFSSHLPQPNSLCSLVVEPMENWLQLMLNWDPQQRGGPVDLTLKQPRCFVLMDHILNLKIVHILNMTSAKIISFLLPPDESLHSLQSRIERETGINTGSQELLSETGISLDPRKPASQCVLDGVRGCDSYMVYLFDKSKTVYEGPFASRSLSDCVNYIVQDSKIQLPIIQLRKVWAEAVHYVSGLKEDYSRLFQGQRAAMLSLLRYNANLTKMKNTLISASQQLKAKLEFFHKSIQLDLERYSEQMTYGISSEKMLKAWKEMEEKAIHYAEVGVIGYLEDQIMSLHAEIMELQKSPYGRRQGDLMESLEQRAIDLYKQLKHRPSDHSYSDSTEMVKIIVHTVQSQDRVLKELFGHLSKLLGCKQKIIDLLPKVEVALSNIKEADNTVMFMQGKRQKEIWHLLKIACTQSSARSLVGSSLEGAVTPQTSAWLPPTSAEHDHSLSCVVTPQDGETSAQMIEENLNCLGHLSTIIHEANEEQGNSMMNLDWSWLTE

[4] = biological target: panel of 255 wild-type kinases (Homo sapiens, UniProt P08631)
[5] = biological target: T3, panel of 255 wild-type kinases (Homo sapiens, UniProt P53778)
T3 sequence (P53778 1-367): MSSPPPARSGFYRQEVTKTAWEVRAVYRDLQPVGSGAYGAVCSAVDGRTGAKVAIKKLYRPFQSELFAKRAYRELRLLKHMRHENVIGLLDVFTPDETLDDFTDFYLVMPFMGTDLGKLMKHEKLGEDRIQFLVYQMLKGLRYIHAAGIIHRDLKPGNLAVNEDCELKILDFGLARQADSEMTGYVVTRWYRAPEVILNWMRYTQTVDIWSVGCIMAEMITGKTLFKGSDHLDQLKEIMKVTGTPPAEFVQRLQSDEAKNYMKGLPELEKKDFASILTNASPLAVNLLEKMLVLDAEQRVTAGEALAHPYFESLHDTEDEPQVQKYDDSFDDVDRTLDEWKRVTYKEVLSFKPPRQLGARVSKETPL

[6] = biological target: T4, panel of 255 wild-type kinases (Homo sapiens, UniProt P51813)
T4 sequence (P51813 1-675): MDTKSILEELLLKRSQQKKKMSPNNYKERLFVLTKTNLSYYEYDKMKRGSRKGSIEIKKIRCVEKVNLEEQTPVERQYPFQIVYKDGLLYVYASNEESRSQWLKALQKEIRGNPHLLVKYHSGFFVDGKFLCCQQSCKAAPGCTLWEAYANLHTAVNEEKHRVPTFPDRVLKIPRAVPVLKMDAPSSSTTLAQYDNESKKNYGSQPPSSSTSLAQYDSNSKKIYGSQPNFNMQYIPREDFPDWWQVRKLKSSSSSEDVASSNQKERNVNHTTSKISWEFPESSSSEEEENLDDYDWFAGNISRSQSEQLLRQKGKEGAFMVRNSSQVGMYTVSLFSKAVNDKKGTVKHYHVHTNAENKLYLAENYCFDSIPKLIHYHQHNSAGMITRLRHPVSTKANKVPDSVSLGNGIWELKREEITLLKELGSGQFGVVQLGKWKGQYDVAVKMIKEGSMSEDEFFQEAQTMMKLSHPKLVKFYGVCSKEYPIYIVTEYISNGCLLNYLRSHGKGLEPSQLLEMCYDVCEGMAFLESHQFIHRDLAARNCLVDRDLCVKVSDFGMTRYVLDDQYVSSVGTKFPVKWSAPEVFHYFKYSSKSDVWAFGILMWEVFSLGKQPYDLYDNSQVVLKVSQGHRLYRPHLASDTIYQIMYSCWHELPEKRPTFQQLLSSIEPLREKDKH

[7] = MST2, 1 µmol/L single concentration, ref DOI: 10.1158/1535-7163.MCT-18-0877
[8] = PAK2, 1 µmol/L single concentration, ref DOI: 10.1158/1535-7163.MCT-18-0877
[9] = kinase IKKα, 1 µmol/L single concentration, ref DOI: 10.1158/1535-7163.MCT-18-0877
[10] = kinase HCK, 1 µmol/L single concentration, ref DOI: 10.1158/1535-7163.MCT-18-0877
[11] = p38γ, 1 µmol/L single concentration, ref DOI: 10.1158/1535-7163.MCT-18-0877
[12] = BMX kinase assay, 1 µmol/L single concentration, ref DOI: 10.1158/1535-7163.MCT-18-0877
[13] = MST2, 1 µmol/L single concentration, ref DOI: 10.1371/journal.pone.0092146
[14] = PAK2, 1 µmol/L single concentration, ref DOI: 10.1371/journal.pone.0092146
[15] = kinase IKKα, 1 µmol/L single concentration, ref DOI: 10.1371/journal.pone.0092146
[16] = kinase HCK, 1 µmol/L single concentration, ref DOI: 10.1371/journal.pone.0092146
[17] = BMX kinase assay, 1 µmol/L single concentration, ref DOI: 10.1371/journal.pone.0092146
[18] = p38γ, 1 µmol/L single concentration, ref DOI: 10.1371/journal.pone.0092146

Structure (SMILES) | %-inhibition, MST2 [1, 7] [%] | %-inhibition, PAK2 [2, 8] [%] | %-inhibition at 1 µmol/L, IKKα [3, 9] [%] | %-inhibition at 1 µmol/L, HCK [4, 10] [%] | %-inhibition, p38γ [5, 11] [%] | %-inhibition BMX [6, 12] [%] | %-inhibition at 1 µmol/L, HCK [4, 16] [%] | further results
CC#CC(=O)N1CCC[C@H]1c1nc(-c2ccc(C(=O)Nc3ccccn3)cc2)c2c(N)nccn12 [acalabrutinib] | -3.46 | -5 | -1.45 | 0.452 | -1.74 | – | – | –
CCc1cc2c(cc1N1CCC(N3CCOCC3)CC1)C(C)(C)c1[nH]c3cc(C#N)ccc3c1C2=O [alectinib] | -1.42 | -29 | -0.856 | 43 | 1.73 | 4 | – | –
COc1cc(N2CCC(N3CCN(C)CC3)CC2)ccc1Nc1ncc(Cl)c(Nc2ccccc2P(C)(C)=O)n1 [brigatinib] | – | – | – | – | – | – | – | %-inhibition, MST2 [1]: 20%; %-inhibition, PAK2 [2]: 16%; %-inhibition at 1 µmol/L, IKKα [3]: -0.856%; %-inhibition at 1 µmol/L, HCK [4]: 78%; %-inhibition BMX [6]: 18%; %-inhibition, p38γ [5]: 3%
Cc1cc(Nc2ncc(Cl)c(Nc3ccccc3S(=O)(=O)C(C)C)n2)c(OC(C)C)cc1C1CCNCC1 [ceritinib] | 2.76 | -4.22 | -0.91 | 15 | 3.32 | -0.557 | – | –
O=C(c1ccc(F)c(F)c1Nc1ccc(I)cc1F)N1CC(O)([C@@H]2CCCCN2)C1 [cobimetinib] | 1.8 | -17 | 1.07 | -3.63 | 2 | 3.49 | – | –
C[C@@H](Oc1cc(-c2cnn(C3CCNCC3)c2)cnc1N)c1c(Cl)ccc(F)c1Cl [crizotinib] | – | – | – | – | – | – | 26 | %-inhibition, MST2 [1, 13]: 13%; %-inhibition, PAK2 [2, 14]: 5%; %-inhibition at 1 µmol/L, IKKα [3, 15]: -1.78%
CC(C)(C)c1nc(-c2cccc(NS(=O)(=O)c3c(F)cccc3F)c2F)c(-c2ccnc(N)n2)s1 [dabrafenib] | – | – | – | – | – | – | 57 | %-inhibition BMX [6, 17]: 55%; %-inhibition, p38γ [5, 18]: 0.311%
C=CC(=O)N1CCC[C@@H](n2nc(-c3ccc(Oc4ccccc4)cc3)c3c(N)ncnc32)C1 [ibrutinib] | 17 | -6 | 4.34 | 100 | 3.51 | – | – | –
CO[C@@H]1[C@H](N(C)C(=O)c2ccccc2)C[C@H]2O[C@]1(C)n1c3ccccc3c3c4c(c5c6ccccc6n2c5c31)C(=O)NC4 [midostaurin] | 98 | – | -0.107 | – | 7 | 81 | – | –
C=CC(=O)Nc1cc(Nc2nccc(-c3cn(C)c4ccccc34)n2)c(OC)cc1N(C)CCN(C)C [osimertinib] | – | -14 | 5 | 0.0489 | 2.19 | 57 | – | –
CC(=O)Nc1cccc(-n2c(=O)n(C3CC3)c(=O)c3c(Nc4ccc(I)cc4F)n(C)c(=O)c(C)c32)c1 [trametinib] | – | – | – | – | – | – | -2.84 | %-inhibition, MST2 [1, 13]: -3%; %-inhibition, PAK2 [2, 14]: -9%; %-inhibition at 1 µmol/L, IKKα [3, 15]: 2.63%; %-inhibition BMX [6, 17]: -3.22%; %-inhibition, p38γ [5, 18]: 0.684%
CCCS(=O)(=O)Nc1ccc(F)c(C(=O)c2c[nH]c3ncc(-c4ccc(Cl)cc4)cc23)c1F [vemurafenib] | – | – | – | – | – | – | 30 | %-inhibition, MST2 [1, 13]: 24%; %-inhibition, PAK2 [2, 14]: 13%; %-inhibition at 1 µmol/L, IKKα [3, 15]: -1.89%; %-inhibition BMX [6, 17]: 24%; %-inhibition, p38γ [5, 18]: -0.299%
